This is an account of results in patent publication US11198713B2, “Agents modulating beta-catenin functions and methods thereof” (FOG PHARMACEUTICALS, INC., priority 2017, dated 2021).

Where only a bound is given, the exact number is not on record here.

In the test the target is T1, full-length beta-catenin (Axin site) (Homo sapiens, UniProt P35222).
T1 construct: 15 nM full-length beta-catenin, 20 nM FITC labeled peptide in buffer
T1 sequence (P35222 1-781): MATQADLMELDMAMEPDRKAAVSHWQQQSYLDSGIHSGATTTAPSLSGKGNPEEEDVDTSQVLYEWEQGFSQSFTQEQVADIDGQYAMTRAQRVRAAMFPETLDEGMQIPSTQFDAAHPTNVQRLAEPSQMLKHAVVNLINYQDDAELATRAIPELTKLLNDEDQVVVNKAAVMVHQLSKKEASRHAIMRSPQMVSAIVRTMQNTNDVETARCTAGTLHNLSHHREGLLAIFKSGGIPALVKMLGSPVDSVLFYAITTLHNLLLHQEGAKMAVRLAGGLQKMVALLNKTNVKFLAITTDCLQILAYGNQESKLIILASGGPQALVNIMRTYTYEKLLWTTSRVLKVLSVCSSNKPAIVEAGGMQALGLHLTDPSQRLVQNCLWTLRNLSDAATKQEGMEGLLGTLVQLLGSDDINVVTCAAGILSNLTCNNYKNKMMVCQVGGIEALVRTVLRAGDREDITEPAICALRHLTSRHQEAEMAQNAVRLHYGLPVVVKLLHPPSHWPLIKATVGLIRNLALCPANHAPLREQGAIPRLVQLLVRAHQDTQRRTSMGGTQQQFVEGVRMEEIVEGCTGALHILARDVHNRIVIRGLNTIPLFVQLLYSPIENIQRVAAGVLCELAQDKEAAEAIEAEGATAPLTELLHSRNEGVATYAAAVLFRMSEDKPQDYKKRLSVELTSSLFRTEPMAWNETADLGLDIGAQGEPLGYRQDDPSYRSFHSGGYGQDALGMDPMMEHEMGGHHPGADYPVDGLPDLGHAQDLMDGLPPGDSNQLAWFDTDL
Description: Competition fluorescence polarization assay (Axin site probe). The class given is binding. The following applies: competition fluorescence polarization, Table 2; read-out: in vitro FP EC50. As to the method: FIG. 1. […] Peptide solutions were prepared in buffer (50 mM Tris pH 8.0, 250 mM NaCl, 2% glycerol, 0.5 mM EDTA, 0.02% w/v sodium azide) using a 3-fold serial dilution from 5 μM. Probe solution (15 nM full-length 13-Catenin, 20 nM FITC labeled peptide (FITC-PEG1-PQ-S5-ILD-S5-HVRRVWR (SEQ ID NO: 1) (hydrocarbon staple formed by two S5 via olefin metathesis)) in buffer) was prepared and incubated for 5 minutes, then 40 μL per well plated in a black polystyrene 384-well plate (Corning). Equal volume of the titrated peptide was added to the plate and incubated protected from light for 15 minutes prior to read. Reads were performed on a Spectramax M5 (Molecular Devices) in duplicate.
FIG. 7. […] BCL9 Competition FP assay: Peptide solutions were prepared in buffer (50 mM Tris pH 8.0, 250 mM NaCl, 2% glycerol, 0.5 mM EDTA, 0.02% w/v sodium azide) using a 3-fold serial dilution from 10 μM. Probe solution (250 nM full-length beta-catenin, 20 nM 5FAM labeled peptide in buffer) was prepared and 40 μL per well plated in a black polystyrene 384-well plate (Corning). Equal volume of the titrated peptide was added to the plate and incubated protected from light for 15 minutes prior to read. Reads were performed on a Spectramax M5 (Molecular Devices) in duplicate. Probe: Ac-[…]nLeu-Leu-2NapA-bala-bala-Lys5FAM-NH2 (SEQ ID NO: 2) (from Biochemistry, 2009, 48 (40), pp 9534-9541). Axin Competition FP assay: Peptide solutions were prepared in buffer (50 mM Tris pH 8.0, 250 mM NaCl, 2% glycerol, 0.5 mM EDTA, 0.02% w/v sodium azide) using a 3-fold serial dilution from 5 μM. Probe solution (15 nM full-length beta-catenin, 20 nM FITC labeled peptide in buffer) was prepared and incubated for 5 minutes, then 40 μL per well plated in a black polystyrene 384-well plate (Corning). Equal volume of the titrated peptide was added to the plate and incubated protected from light for 15 minutes prior to read. Reads were performed on a Spectramax M5 (Molecular Devices) in duplicate. Probe: FITC-StAx-33 from Grossmann et al. PNAS 109 17942-17947.
(In general: Fluorescence polarisation rises when a labelled molecule tumbles more slowly, as on binding a larger partner.)

As usually defined, the EC50 is the concentration giving half of the maximal effect. In the case of `CC[C@H](C)[C@@H]1NC(=O)[C@H](Cc2c[nH]cn2)NC(=O)[C@H](C)NC(=O)[C@H](CC(=O)O)NC(=O)[C@H](CC(C)C)NC(=O)[C@H]([C@@H](C)CC)NC(=O)[C@](C)(NC(=O)[C@H](C)NC(C)=O)CCCCCC=CCN2CC(C(=O)N[C@@H](CCCNC(=N)N)C(=O)N[C@H](C(=O)N[C@@H](Cc3c[nH]c4ccccc34)C(N)=O)C(C)C)(C2)NC1=O` (single isomer, unassigned) [FP0516a Isomer 1, Ac-A-R7-I-L-D-A-H-I-MA-R-V-W-NH2], the EC50 was in the range of 0.1 to 0.5 µM. Turning to `CC[C@H](C)[C@@H]1NC(=O)[C@H](Cc2c[nH]cn2)NC(=O)[C@H](C)NC(=O)[C@H](CC(=O)O)NC(=O)[C@H](CC(C)C)NC(=O)[C@H]([C@@H](C)CC)NC(=O)[C@](C)(NC(=O)[C@H](C)NC(C)=O)CCCCCC=CCN2CC(C(=O)N[C@@H](CCCNC(=N)N)C(=O)N[C@H](C(=O)N[C@@H](Cc3c[nH]c4ccccc34)C(N)=O)C(C)C)(C2)NC1=O` (single isomer, unassigned) [FP0516a Isomer 2, Ac-A-R7-I-L-D-A-H-I-MA-R-V-W-NH2], the EC50 lay within 0.5 to 5 µM.

`CC[C@H](C)[C@@H]1NC(=O)[C@H](Cc2ccccn2)NC(=O)[C@H](C)NC(=O)[C@H](CC(=O)O)NC(=O)[C@H](CC(C)C)NC(=O)[C@H]([C@@H](C)CC)NC(=O)[C@](C)(NC(=O)[C@H](C)NC(C)=O)CCCCCCC=CCOC(=O)N2CC[C@@](C(=O)N[C@@H](C)C(=O)N[C@H](C(=O)N[C@@H](Cc3c[nH]c4ccccc34)C(N)=O)C(C)C)(C2)NC1=O` (single isomer, unassigned) [FP0554c Isomer 1, Ac-A-R8-I-L-D-A-2pyr-I-MB-A-V-W-NH2]: the EC50 is > 5 µM. For `CC[C@H](C)[C@@H]1NC(=O)[C@H](Cc2ccccn2)NC(=O)[C@H](C)NC(=O)[C@H](CC(=O)O)NC(=O)[C@H](CC(C)C)NC(=O)[C@H]([C@@H](C)CC)NC(=O)[C@](C)(NC(=O)[C@H](C)NC(C)=O)CCCCCCC=CCOC(=O)N2CC[C@@](C(=O)N[C@@H](C)C(=O)N[C@H](C(=O)N[C@@H](Cc3c[nH]c4ccccc34)C(N)=O)C(C)C)(C2)NC1=O` (single isomer, unassigned) [FP0554c Isomer 2, Ac-A-R8-I-L-D-A-2pyr-I-MB-A-V-W-NH2], the EC50 is > 5 µM. Consider `CC[C@H](C)[C@@H]1NC(=O)[C@H](Cc2ccccn2)NC(=O)[C@H](C)NC(=O)[C@H](CC(=O)O)NC(=O)[C@H](CC(C)C)NC(=O)[C@H]([C@@H](C)CC)NC(=O)[C@](C)(NC(=O)[C@H](C)NC(C)=O)CCCCCCC=CCOC(=O)N2CC[C@@](C(=O)N[C@@H](Cc3ccccc3)C(=O)N[C@H](C(=O)N[C@@H](Cc3c[nH]c4ccccc34)C(N)=O)C(C)C)(C2)NC1=O` (single isomer, unassigned) [FP0555c Isomer 1, Ac-A-R8-I-L-D-A-2pyr-I-MB-F-V-W-NH2], for which the EC50 is > 5 µM. As to `CC[C@H](C)[C@@H]1NC(=O)[C@H](Cc2ccccn2)NC(=O)[C@H](C)NC(=O)[C@H](CC(=O)O)NC(=O)[C@H](CC(C)C)NC(=O)[C@H]([C@@H](C)CC)NC(=O)[C@](C)(NC(=O)[C@H](C)NC(C)=O)CCCCCCC=CCOC(=O)N2CC[C@@](C(=O)N[C@@H](Cc3ccccc3)C(=O)N[C@H](C(=O)N[C@@H](Cc3c[nH]c4ccccc34)C(N)=O)C(C)C)(C2)NC1=O` (single isomer, unassigned) [FP0555c Isomer 2, Ac-A-R8-I-L-D-A-2pyr-I-MB-F-V-W-NH2], the EC50 is > 5 µM. In the case of `CC[C@H](C)[C@@H]1NC(=O)[C@H](Cc2ccccn2)NC(=O)[C@H](C)NC(=O)[C@H](CC(=O)O)NC(=O)[C@H](CC(C)C)NC(=O)[C@H]([C@@H](C)CC)NC(=O)[C@](C)(NC(=O)[C@H](C)NC(C)=O)CCCCCCC=CCOC(=O)N2CC[C@@](C(=O)N[C@H](C(=O)N[C@H](C(=O)N[C@@H](Cc3c[nH]c4ccccc34)C(N)=O)C(C)C)[C@@H](C)CC)(C2)NC1=O` (single isomer, unassigned) [FP0556c Isomer 1, Ac-A-R8-I-L-D-A-2pyr-I-MB-I-V-W-NH2], the EC50 was > 5 µM.

Take `CC[C@H](C)[C@@H]1NC(=O)[C@H](Cc2ccccn2)NC(=O)[C@H](C)NC(=O)[C@H](CC(=O)O)NC(=O)[C@H](CC(C)C)NC(=O)[C@H]([C@@H](C)CC)NC(=O)[C@](C)(NC(=O)[C@H](C)NC(C)=O)CCCCCCC=CCOC(=O)N2CC[C@@](C(=O)N[C@H](C(=O)N[C@H](C(=O)N[C@@H](Cc3c[nH]c4ccccc34)C(N)=O)C(C)C)[C@@H](C)CC)(C2)NC1=O` (single isomer, unassigned) [FP0556c Isomer 2, Ac-A-R8-I-L-D-A-2pyr-I-MB-I-V-W-NH2]: the EC50 was > 5 µM. In the case of `CC[C@H](C)[C@@H]1NC(=O)[C@H](Cc2ccccn2)NC(=O)[C@H](C)NC(=O)[C@H](CC(=O)O)NC(=O)[C@H](CC(C)C)NC(=O)[C@H]([C@@H](C)CC)NC(=O)[C@](C)(NC(=O)[C@H](C)NC(C)=O)CCCCCCC=CCOC(=O)N2CC[C@@](C(=O)N[C@@H](CC(C)C)C(=O)N[C@H](C(=O)N[C@@H](Cc3c[nH]c4ccccc34)C(N)=O)C(C)C)(C2)NC1=O` (single isomer, unassigned) [FP0557c Isomer 1, Ac-A-R8-I-L-D-A-2pyr-I-MB-L-V-W-NH2], the 50% effective concentration (EC50) was > 5 µM.

Turning to `CC[C@H](C)[C@@H]1NC(=O)[C@H](Cc2ccccn2)NC(=O)[C@H](C)NC(=O)[C@H](CC(=O)O)NC(=O)[C@H](CC(C)C)NC(=O)[C@H]([C@@H](C)CC)NC(=O)[C@](C)(NC(=O)[C@H](C)NC(C)=O)CCCCCCC=CCOC(=O)N2CC[C@@](C(=O)N[C@@H](CC(C)C)C(=O)N[C@H](C(=O)N[C@@H](Cc3c[nH]c4ccccc34)C(N)=O)C(C)C)(C2)NC1=O` (single isomer, unassigned) [FP0557c Isomer 2, Ac-A-R8-I-L-D-A-2pyr-I-MB-L-V-W-NH2], the EC50 is > 5 µM.

As to `CC[C@H](C)[C@@H]1NC(=O)[C@H](Cc2ccccn2)NC(=O)[C@H](C)NC(=O)[C@H](CC(=O)O)NC(=O)[C@H](CC(C)C)NC(=O)[C@H]([C@@H](C)CC)NC(=O)[C@](C)(NC(=O)[C@H](C)NC(C)=O)CCCCCCC=CCOC(=O)N2CC[C@@](C(=O)N[C@@H](CC(N)=O)C(=O)N[C@H](C(=O)N[C@@H](Cc3c[nH]c4ccccc34)C(N)=O)C(C)C)(C2)NC1=O` (single isomer, unassigned) [FP0558c Isomer 1, Ac-A-R8-I-L-D-A-2pyr-I-MB-N-V-W-NH2], the EC50 was > 5 µM.

As for `CC[C@H](C)[C@@H]1NC(=O)[C@H](Cc2ccccn2)NC(=O)[C@H](C)NC(=O)[C@H](CC(=O)O)NC(=O)[C@H](CC(C)C)NC(=O)[C@H]([C@@H](C)CC)NC(=O)[C@](C)(NC(=O)[C@H](C)NC(C)=O)CCCCCCC=CCOC(=O)N2CC[C@@](C(=O)N[C@@H](CC(N)=O)C(=O)N[C@H](C(=O)N[C@@H](Cc3c[nH]c4ccccc34)C(N)=O)C(C)C)(C2)NC1=O` (single isomer, unassigned) [FP0558c Isomer 2, Ac-A-R8-I-L-D-A-2pyr-I-MB-N-V-W-NH2], the EC50 is > 5 µM. The figure for `CC[C@H](C)[C@@H]1NC(=O)[C@H](Cc2ccccn2)NC(=O)[C@H](C)NC(=O)[C@H](CC(=O)O)NC(=O)[C@H](CC(C)C)NC(=O)[C@H]([C@@H](C)CC)NC(=O)[C@](C)(NC(=O)[C@H](C)NC(C)=O)CCCCCCC=CCOC(=O)N2CC[C@@](C(=O)N[C@@H](CCC(N)=O)C(=O)N[C@H](C(=O)N[C@@H](Cc3c[nH]c4ccccc34)C(N)=O)C(C)C)(C2)NC1=O` (single isomer, unassigned) [FP0559c Isomer 1, Ac-A-R8-I-L-D-A-2pyr-I-MB-Q-V-W-NH2] is > 5 µM.
